The results in this text go back to PubChem BioAssay AID250 (DTP/NCI, 2004).

“And” between values parts separate entries of the source, which are not always exact repeats. Equal values may be shown once. Inconclusive results and toxic doses are left out.

The subject of this test is BDF1 mice, L1210 leukemia sc, survival T/C. Briefly: NCI In Vivo Anticancer Drug Screen. Data for tumor model L1210 Leukemia (subcutaneous) in B6D2F1 (BDF1) mice. The following applies: higher = longer survival. Put shortly:
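Read-out: T/C ratio, i.e. survival or tumor size in treated mice over that in vehicle-treated controls, from mice bearing transplantable tumors.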

Where [1] appears, read: endpoint: median survival time, dose: 14.0 mg/kg/injection, schedule: Q01DX Z (sc), vehicle: saline.
Setting [2] is: endpoint: median survival time, dose: 23.0 mg/kg/injection, schedule: Q01DX Z (sc), vehicle: saline.
[3] abbreviates: endpoint: median survival time, dose: 39.0 mg/kg/injection, schedule: Q01DX Z (sc), vehicle: saline.
Setting [4] is: endpoint: median survival time, dose: 65.0 mg/kg/injection, schedule: Q01DX Z (sc), vehicle: saline.
The mark [5] stands for this setting: endpoint: median survival time, dose: 108.0 mg/kg/injection, schedule: Q01DX Z (sc), vehicle: saline.
[6] abbreviates: endpoint: median survival time, dose: 38.9 mg/kg/injection, schedule: Q01DX Z (sc), vehicle: methylcellulose (MC).
Where [7] appears, read: endpoint: median survival time, dose: 108.0 mg/kg/injection, schedule: Q01DX Z (sc), vehicle: methylcellulose (MC).

As to `COC(=O)[C@@H]1c2cc3c(c(O)c2[C@@H](OC2OC(C)C(OC)C(C)(OC)C2OC)C[C@]1(C)O)C(=O)c1c(O)cc2c(c1C3=O)O[C@H]1O[C@]2(C)[C@H](O)[C@@H](N(C)C)[C@@H]1O` (stereo partly drawn), the T/C by setting is: (endpoint: median survival time, dose: 3.0 mg/kg/injection, schedule: Q01DX Z (sc), vehicle: saline) 105 % of control; (endpoint: median survival time, dose: 5.0 mg/kg/injection, schedule: Q01DX Z (sc), vehicle: saline) 100 % of control; (endpoint: median survival time, dose: 8.4 mg/kg/injection, schedule: Q01DX Z (sc), vehicle: saline) 100 % of control; under setting [1], 90 % of control; under setting [2], 90 % of control.

For `COC(=O)c1[nH]cnc1/N=N/N(C)C`, the T/C reads like this: under setting [1], 109 % of control; under setting [2], 100 % of control; under setting [3], 109 % of control; under setting [4], 104 % of control; under setting [5], 159 % of control.

In the case of `CN(C)Nc1ncnc2nc[nH]c12`, the T/C is 100 % of control (endpoint: median survival time, dose: 8.4 mg/kg/injection, schedule: Q01DX Z (sc), vehicle: water); 100 % of control (endpoint: median survival time, dose: 14.0 mg/kg/injection, schedule: Q01DX Z (sc), vehicle: water); 111 % of control (endpoint: median survival time, dose: 23.0 mg/kg/injection, schedule: Q01DX Z (sc), vehicle: water); 105 % of control (endpoint: median survival time, dose: 39.0 mg/kg/injection, schedule: Q01DX Z (sc), vehicle: water); 111 % of control (endpoint: median survival time, dose: 65.0 mg/kg/injection, schedule: Q01DX Z (sc), vehicle: water); 100 % of control (endpoint: median survival time, dose: 108.0 mg/kg/injection, schedule: Q01DX Z (sc), vehicle: water).

In the case of `CC(=O)c1ccc(NC(=O)N(CCCl)N=O)cc1`, the T/C is 183 % of control (endpoint: median survival time, dose: 39.0 mg/kg/injection, schedule: Q01DX Z (sc), vehicle: carboxymethylcellulose (CMC)) and 211 % of control (endpoint: median survival time, dose: 65.0 mg/kg/injection, schedule: Q01DX Z (sc), vehicle: carboxymethylcellulose (CMC)).

Turning to `CS(=O)(=O)OCCCNCCCOS(C)(=O)=O`, the T/C (endpoint: median survival time, dose: 15.0 mg/kg/injection, schedule: Q01DX009 (sc), vehicle: saline) was 111 % of control; the T/C (endpoint: median survival time, dose: 30.0 mg/kg/injection, schedule: Q01DX009 (sc), vehicle: saline) was 108 % of control; the T/C (endpoint: median survival time, dose: 39.0 mg/kg/injection, schedule: Q04DX003 (ip), vehicle: saline) is 118 % of control; the T/C (endpoint: median survival time, dose: 180.0 mg/kg/injection, schedule: Q04DX003 (ip), vehicle: saline) is 93 % of control.

As to `CC(C)CSc1ncnc2nc[nH]c12`, the T/C is, setting by setting: under setting [6], 100 % of control; (endpoint: median survival time, dose: 64.8 mg/kg/injection, schedule: Q01DX Z (sc), vehicle: methylcellulose (MC)) 100 % of control; under setting [7], 100 % of control.

As for `O=c1[nH]c(=O)n(C2OC(CO)C(O)C2O)cc1Br` (stereo not drawn), the T/C by setting is: under setting [3], 100 % of control; under setting [4], 100 % of control; under setting [5], 100 % of control; (endpoint: median survival time, dose: 180.0 mg/kg/injection, schedule: Q01DX Z (sc), vehicle: saline) 94 % of control and 100 % of control; (endpoint: median survival time, dose: 300.0 mg/kg/injection, schedule: Q01DX Z (sc), vehicle: saline) 100 % of control and 105 % of control; (endpoint: median survival time, dose: 500.0 mg/kg/injection, schedule: Q01DX Z (sc), vehicle: saline) 94 % of control and 100 % of control. For the same compound, the T/C was 105 % of control (endpoint: median survival time, dose: 833.0 mg/kg/injection, schedule: Q01DX Z (sc), vehicle: saline) and 94 % of control (endpoint: median survival time, dose: 1388.0 mg/kg/injection, schedule: Q01DX Z (sc), vehicle: saline).

`CCC(C)SC1=NC=NC2=NC=NC21` (stereo not drawn): the T/C reads like this: under setting [6], 109 % of control; under setting [7], 150 % of control; (endpoint: median survival time, dose: 500.0 mg/kg/injection, schedule: Q01DX Z (sc), vehicle: methylcellulose (MC)) 100 % of control; (endpoint: median survival time, dose: 833.0 mg/kg/injection, schedule: Q01DX Z (sc), vehicle: methylcellulose (MC)) 100 % of control.

Turning to `O=c1nc2[nH]c(=O)[nH]c(=O)c2n[nH]1`, the T/C was 100 % of control (endpoint: median survival time, dose: 10.0 mg/kg/injection, schedule: Q01DX Z (sc), vehicle: saline); 100 % of control (endpoint: median survival time, dose: 28.0 mg/kg/injection, schedule: Q01DX Z (sc), vehicle: saline); 100 % of control (endpoint: median survival time, dose: 47.0 mg/kg/injection, schedule: Q01DX Z (sc), vehicle: saline); 100 % of control (endpoint: median survival time, dose: 78.0 mg/kg/injection, schedule: Q01DX Z (sc), vehicle: saline).

For the compound `C=CC(COC(C)=O)N1CC1` (stereo not drawn), the T/C was 100 % of control (endpoint: median survival time, dose: 4.7 mg/kg/injection, schedule: Q01DX Z (sc), vehicle: saline); 100 % of control (endpoint: median survival time, dose: 7.8 mg/kg/injection, schedule: Q01DX Z (sc), vehicle: saline); 100 % of control (endpoint: median survival time, dose: 13.0 mg/kg/injection, schedule: Q01DX Z (sc), vehicle: saline); 100 % of control (endpoint: median survival time, dose: 36.0 mg/kg/injection, schedule: Q01DX Z (sc), vehicle: saline); 100 % of control (endpoint: median survival time, dose: 60.0 mg/kg/injection, schedule: Q01DX Z (sc), vehicle: saline).

With `Nc1nncs1`, the T/C by setting is: (endpoint: median survival time, dose: 50.0 mg/kg/injection, schedule: Q04DX004 (sc), vehicle: water) 111 % of control; (endpoint: median survival time, dose: 100.0 mg/kg/injection, schedule: Q04DX004 (sc), vehicle: water) 101 % of control; (endpoint: median survival time, dose: 200.0 mg/kg/injection, schedule: Q04DX004 (sc), vehicle: water) 106 % of control; (endpoint: median survival time, dose: 200.0 mg/kg/injection, schedule: Q08DX003 (sc), vehicle: water) 101 % of control; (endpoint: median survival time, dose: 400.0 mg/kg/injection, schedule: Q04DX004 (sc), vehicle: water) 111 % of control; (endpoint: median survival time, dose: 400.0 mg/kg/injection, schedule: Q08DX003 (sc), vehicle: water) 108 % of control. The T/C by setting is: (endpoint: median survival time, dose: 800.0 mg/kg/injection, schedule: Q08DX003 (sc), vehicle: water) 109 % of control; (endpoint: median survival time, dose: 1600.0 mg/kg/injection, schedule: Q08DX003 (sc), vehicle: water) 117 % of control.

`COC1=C(N)C(=O)c2nc(-c3nc(C(=O)O)c(C)c(-c4ccc(OC)c(OC)c4O)c3N)ccc2C1=O`: the T/C runs as follows: (endpoint: median survival time, dose: 0.02 mg/kg/injection, schedule: Q01DX009 (ip), vehicle: water) 92 % of control; (endpoint: median survival time, dose: 0.02 mg/kg/injection, schedule: Q01DX009 (sc), vehicle: water) 93 % of control; (endpoint: median survival time, dose: 0.05 mg/kg/injection, schedule: Q01DX009 (ip), vehicle: water) 96 % of control; (endpoint: median survival time, dose: 0.05 mg/kg/injection, schedule: Q01DX009 (sc), vehicle: water) 98 % of control; (endpoint: median survival time, dose: 0.1 mg/kg/injection, schedule: Q01DX009 (ip), vehicle: water) 96 % of control; (endpoint: median survival time, dose: 0.1 mg/kg/injection, schedule: Q01DX009 (sc), vehicle: water) 96 % of control. The T/C is 93 % of control (endpoint: median survival time, dose: 0.2 mg/kg/injection, schedule: Q01DX009 (ip), vehicle: water); 94 % of control (endpoint: median survival time, dose: 0.2 mg/kg/injection, schedule: Q01DX009 (sc), vehicle: water); 104 % of control (endpoint: median survival time, dose: 0.25 mg/kg/injection, schedule: Q01DX009 (sc), vehicle: water); 102 % of control (endpoint: median survival time, dose: 0.4 mg/kg/injection, schedule: Q01DX009 (ip), vehicle: water); 98 % of control (endpoint: median survival time, dose: 0.4 mg/kg/injection, schedule: Q01DX009 (sc), vehicle: water); 94 % of control and 106 % of control (endpoint: median survival time, dose: 0.5 mg/kg/injection, schedule: Q01DX009 (sc), vehicle: water). The T/C is, setting by setting: (endpoint: median survival time, dose: 1.0 mg/kg/injection, schedule: Q01DX009 (sc), vehicle: water) 96 % of control and 101 % of control; (endpoint: median survival time, dose: 2.0 mg/kg/injection, schedule: Q01DX009 (sc), vehicle: water) 94 % of control and 96 % of control; (endpoint: median survival time, dose: 4.0 mg/kg/injection, schedule: Q01DX009 (sc), vehicle: water) 94 % of control.

As to `CCCCC(=O)N(c1ccc(Nc2c3ccccc3nc3cc([N+](=O)[O-])ccc23)cc1)S(C)(=O)=O`, the T/C is 107 % of control (endpoint: mean survival time, dose: 3.18 mg/kg/injection, schedule: Q01DX009 (sc), vehicle: saline); 112 % of control (endpoint: mean survival time, dose: 6.25 mg/kg/injection, schedule: Q01DX009 (sc), vehicle: saline); 168 % of control (endpoint: mean survival time, dose: 25.0 mg/kg/injection, schedule: Q01DX009 (sc), vehicle: saline).

Consider `CC1(C)N=C(N)N=C(N)N1c1cccc(Br)c1`, for which the T/C runs as follows: under setting [2], 105 % of control; (endpoint: median survival time, dose: 39.0 mg/kg/injection, schedule: Q01DX Z (sc), vehicle: methylcellulose (MC)) 112 % of control; under setting [3], 100 % of control and 122 % of control; (endpoint: median survival time, dose: 65.0 mg/kg/injection, schedule: Q01DX Z (sc), vehicle: methylcellulose (MC)) 118 % of control; under setting [4], 110 % of control and 122 % of control; under setting [5], 122 % of control.
